According to PubChem BioAssay (NCI):
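The compound was tested at five concentrations on cells cultured in 96-well plates, with a 48-hour exposure period. TGI denotes the concentration required for complete inhibition of growth.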

Tests used:
Assay in all cases: NCI anticancer screen, dose series, 48 h
[1] = test system: ACHN renal
[2] = test system: CAKI-1 renal
[3] = test system: HOP-62 NSCLC
[4] = test system: HOP-92 NSCLC
[5] = test system: HS 578T breast
[6] = test system: HT29 colon
[7] = test system: MDA-MB-231 breast
[8] = test system: MDA-N
[9] = test system: MOLT-4 leukemia
[10] = test system: NCI-H23 lung
[11] = test system: OVCAR-3 ovarian
[12] = test system: OVCAR-5 ovarian
[13] = test system: PC-3 prostate
[14] = test system: RPMI-8226 leukemia
[15] = test system: SF-539 CNS
[16] = test system: SK-MEL-2 melanoma
[17] = test system: U251 CNS
[18] = test system: UACC-257 melanoma
[19] = test system: BT-549 breast
[20] = test system: SNB-75 CNS

Row | Compound | TGI [1] [µM] | TGI [2] [µM] | TGI [3] [µM] | TGI [4] [µM] | TGI [5] [µM] | TGI [6] [µM] | TGI [7] [µM] | TGI [8] [µM] | TGI [9] [µM] | TGI [10] [µM] | TGI [11] [µM] | TGI [12] [µM] | TGI [13] [µM] | TGI [14] [µM] | TGI [15] [µM] | TGI [16] [µM] | TGI [17] [µM] | TGI [18] [µM] | TGI [19] [µM] | TGI [20] [µM]
1 | CC1=NN(c2cccc(Cl)c2)C2(SCC(=O)N2c2nc3ccccc3s2)/C1=C\c1ccc(Cl)cc1 (stereo not given) | 46.4 | 39.2 | 35.3 | 28.3 | 73.6 | 42.7 | 72 | 69.8 | 20.8 | 41.5 | 37.2 | 55.4 | 31.1 | 39.5 | 89.6 | 35.7 | 28.2 | 63.9 | – | –
2 | CC1Cc2c(Br)nc(N)nc2NC1=O (stereo not given) | > 100 | > 100 | > 100 | – | > 100 | > 100 | > 100 | > 100 | > 100 | > 100 | > 100 | > 100 | > 100 | > 100 | > 100 | > 100 | > 100 | > 100 | > 100 | > 100
3 | CCC(=O)Nc1ccc(N=Cc2cccc(Oc3ccccc3)c2)cc1 | > 100 | > 100 | > 100 | > 100 | > 100 | > 100 | – | > 100 | 76.8 | > 100 | > 100 | – | > 100 | 63.1 | 35.9 | > 100 | – | – | > 100 | > 100
4 | OCC(CN1CCCCC1)(CN1CCCCC1)CN1CCCCC1 | > 100 | > 100 | > 100 | > 100 | > 100 | > 100 | > 100 | > 100 | > 100 | > 100 | > 100 | > 100 | > 100 | – | > 100 | – | > 100 | > 100 | > 100 | –
5 | COc1ccc(N(C)S(=O)(=O)c2ccccc2)cc1 | > 100 | > 100 | > 100 | – | > 100 | > 100 | > 100 | > 100 | > 100 | > 100 | > 100 | > 100 | > 100 | > 100 | > 100 | > 100 | > 100 | > 100 | > 100 | > 100
6 | C[C@H]1O[C@@H](c2c(O)ccc3ccccc23)C[C@@H](N(C)C)C1O (stereo not given in full) | > 100 | – | > 100 | > 100 | > 100 | > 100 | > 100 | > 100 | – | > 100 | > 100 | > 100 | > 100 | – | > 100 | > 100 | > 100 | > 100 | > 100 | > 100
7 | O=C1C=CC2(O[C@H](c3ccccc3)[C@@H](c3ccccc3)O2)C(SC(=O)c2ccccc2)C1 (stereo not given in full) | 3.01 | 6.53 | 3.31 | – | 5.04 | 3.89 | 18 | 3.32 | > 100 | 3.82 | 4.41 | 3.27 | 4.58 | 3.25 | 3.29 | 3.51 | 2.9 | 3.97 | 1.65 | 5.34
8 | Cc1cc(C)nc(NS(=O)(=O)c2ccc(Nc3nncc(=O)n3N)cc2)n1 | > 100 | 29.5 | 34.7 | – | > 100 | 32.2 | – | 30 | 48.6 | 28.6 | 29.8 | 37.2 | 54.9 | 49.8 | > 100 | > 100 | 31.5 | 43.9 | 32.6 | –
9 | C/C=C/c1c(O)c(=O)c2c(OC)cc(OC)c3c4c(OC)cc(OC)c5c(=O)c(O)c(/C=C/C)c(c1c23)c54 | 13.8 | 21.1 | 54.5 | 35.5 | – | 23.8 | 34.9 | 29.4 | > 100 | 23.9 | 15.5 | 68.9 | 19.8 | > 100 | > 100 | 24.9 | 47.1 | 45.5 | 14.3 | 28.7
10 | Cc1ccc(/C(O)=C/c2nc3ccccc3oc2=O)cc1 | > 100 | > 100 | > 100 | – | > 100 | > 100 | > 100 | 59.3 | > 100 | > 100 | > 100 | > 100 | > 100 | – | > 100 | > 100 | > 100 | > 100 | > 100 | > 100
11 | N#Cc1ccc(Oc2nc3ccccc3nc2-c2ccccc2)cc1 | > 100 | > 100 | > 100 | > 100 | > 100 | > 100 | > 100 | > 100 | > 100 | > 100 | > 100 | > 100 | > 100 | > 100 | – | > 100 | > 100 | > 100 | > 100 | –
12 | Cc1ccc(CC(=O)Nc2ccc(NC(=O)/C=C/NC(=O)/C=C/c3ccc(-c4ccccc4)cc3)cc2C(=O)c2ccccc2)cc1 | 10.9 | 11.3 | 4.15 | – | 3.74 | 20.3 | 5.65 | 6.61 | 9.16 | 4.2 | 4.32 | 5.77 | 3.48 | 14.7 | 3.67 | 5.79 | 4.35 | 4.71 | 3.11 | 6.59
13 | CN(NC(=O)c1ccco1)C1=NCCN1 | > 100 | – | > 100 | > 100 | > 100 | > 100 | > 100 | > 100 | > 100 | > 100 | > 100 | > 100 | > 100 | > 100 | > 100 | > 100 | > 100 | > 100 | > 100 | > 100
